# Assay results from the supplement of paper PMC11208160.
# Test: recombinant UMI read abundance after kanamycin selection (control-corrected) (log10(CPM+1)); higher = more efficient recombination; extreme values may be limits of the assay; sequences stand for … in AGTGCAGAGAAAATCGGCCAGTTTTCTCTGCCTGCAGTCCGCATGCCGTGGGACCCCTTGGGTTCTAACCTGTTGCCTAGATTTATGCAGCGGACTGCCTTTCTCCCAAAGTGATAAACCGG…AGGTTGGTTTCACT; site = the 11-nt donor
# Procedure, shortened: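 Counts of recombinant UMIs were reported as log10(CPM+1). Before that, they were converted to CPM, averaged over replicates and scaled using control-derived factors. They came from PCR across the donor–target junction after Escherichia coli carrying the pair library and target plasmid was plated on IPTG (0.07 mM) plus kanamycin, or unselected, in two replicates each.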
# 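Also: IS621 bridge recombinase in Escherichia coli cells against a fixed T5 target plasmid.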
row,Sequence,recombinant UMI read abundance (log10)
1,GGTCCCTCATGGACCGGTTTTCCCGGTAATCCGTATTTGTG (site GGTCCCTCTCA),0.413
2,GGTGAACCATGGACCGGTTTTCCCGGTAATCCGTATTTGGG (site GGTGAACCTCC),0
3,GGTGAAGCATGGACCGGTTTTCCCGGTAATCCGTATTTGAG (site GGTGAAGCTCT),1.82
4,GGTGACTCATGGACCGGTTTTCCCGGTAATCCGTATTTGAC (site GGTGACTCTGT),2.47
5,GGTGAGGCATGGACCGGTTTTCCCGGTAATCCGTATTTGGT (site GGTGAGGCTAC),1.1
6,GGTGAGTCATGGACCGGTTTTCCCGGTAATCCGTATTTGGC (site GGTGAGTCTGC),2.23
7,GGTGCAACATGGACCGGTTTTCCCGGTAATCCGTATTTGTA (site GGTACAACTTA),0.01
8,GGTGCAACATGGACCGGTTTTCCCGGTAATCCGTATTTGTA (site GGTCCAACTTA),0.00521
9,GGTGCAACATGGACCGGTTTTCCCGGTAATCCGTATTTGTA (site GGTGCAACTTA),0.221
10,GGTGCAACATGGACCGGTTTTCCCGGTAATCCGTATTTGTA (site GGTTCAACTTA),0.00709
11,GGTGCGTCATGGACCGGTTTTCCCGGTAATCCGTATTTGGA (site GGTGCGTCTTC),0.59
12,GGTGTTCCATGGACCGGTTTTCCCGGTAATCCGTATTTGGT (site GATGTTCCTAC),0.0226
13,GGTGTTCCATGGACCGGTTTTCCCGGTAATCCGTATTTGGT (site GCTGTTCCTAC),0.0204
14,GGTGTTCCATGGACCGGTTTTCCCGGTAATCCGTATTTGGT (site GGTGTTCCTAC),0.0141
15,GGTGTTCCATGGACCGGTTTTCCCGGTAATCCGTATTTGGT (site GTTGTTCCTAC),0
16,GGTTACCCATGGACCGGTTTTCCCGGTAATCCGTATTTGTC (site GGTTACCCTGA),0.664
17,GGTTCCCCATGGACCGGTTTTCCCGGTAATCCGTATTTGTA (site AGTTCCCCTTA),0.0122
18,GGTTCCCCATGGACCGGTTTTCCCGGTAATCCGTATTTGTA (site CGTTCCCCTTA),0.00861
19,GGTTCCCCATGGACCGGTTTTCCCGGTAATCCGTATTTGTA (site GGTTCCCCTTA),0.0107
20,GGTTCCCCATGGACCGGTTTTCCCGGTAATCCGTATTTGTA (site TGTTCCCCTTA),0.0103
21,GGTTCCGCATGGACCGGTTTTCCCGGTAATCCGTATTTGAA (site GGTTCCGCTTT),0
22,GGTTCTACATGGACCGGTTTTCCCGGTAATCCGTATTTGAG (site GGTTCTACTCT),0.316
23,GGTTGGTCATGGACCGGTTTTCCCGGTAATCCGTATTTGCA (site GGTTGGTCTTG),1.59
24,GGTTTGTCATGGACCGGTTTTCCCGGTAATCCGTATTTGTG (site GGTTTGTCTCA),1.21
25,GTAAAATCATGGACCGGTTTTCCCGGTAATCCGTATTTGCA (site GTAAAATCTTG),1.81

row,Sequence,recombinant UMI read abundance (log10)
1,GTAAAGACATGGACCGGTTTTCCCGGTAATCCGTATTTGGG (site GTAAAGACTCC),0.889
2,GTAACGCCATGGACCGGTTTTCCCGGTAATCCGTATTTGTC (site GTAACGCCTGA),0
3,GTAAGTTCATGGACCGGTTTTCCCGGTAATCCGTATTTGTC (site GTAAGTTCTGA),2.1
4,GTACAAGCATGGACCGGTTTTCCCGGTAATCCGTATTTGCA (site GTACAAGCTTG),2.69
5,GTACCCACATGGACCGGTTTTCCCGGTAATCCGTATTTGTC (site GTACCCACTGA),2.64
6,GTACCTTCATGGACCGGTTTTCCCGGTAATCCGTATTTGAC (site GTACCTTCTGT),2.06
7,GTACGCACATGGACCGGTTTTCCCGGTAATCCGTATTTGTA (site GTAAGCACTTA),0.0204
8,GTACGCACATGGACCGGTTTTCCCGGTAATCCGTATTTGTA (site GTACGCACTTA),2.17
9,GTACGCACATGGACCGGTTTTCCCGGTAATCCGTATTTGTA (site GTAGGCACTTA),0.0167
10,GTACGCACATGGACCGGTTTTCCCGGTAATCCGTATTTGTA (site GTATGCACTTA),0.266
11,GTACTTCCATGGACCGGTTTTCCCGGTAATCCGTATTTGCT (site GTACTTCCTAG),1.14
12,GTAGCCGCATGGACCGGTTTTCCCGGTAATCCGTATTTGCG (site GTAGACGCTCG),0.446
13,GTAGCCGCATGGACCGGTTTTCCCGGTAATCCGTATTTGCG (site GTAGCCGCTCG),2.08
14,GTAGCCGCATGGACCGGTTTTCCCGGTAATCCGTATTTGCG (site GTAGGCGCTCG),0.0284
15,GTAGCCGCATGGACCGGTTTTCCCGGTAATCCGTATTTGCG (site GTAGTCGCTCG),0.781
16,GTAGCCTCATGGACCGGTTTTCCCGGTAATCCGTATTTGTT (site GTAGCCTCTAA),2.42
17,GTAGCGACATGGACCGGTTTTCCCGGTAATCCGTATTTGTC (site GTAGCGACTGA),2.92
18,GTAGCTACATGGACCGGTTTTCCCGGTAATCCGTATTTGAC (site GTAGATACTGT),1.02
19,GTAGCTACATGGACCGGTTTTCCCGGTAATCCGTATTTGAC (site GTAGCTACTGT),2.4
20,GTAGCTACATGGACCGGTTTTCCCGGTAATCCGTATTTGAC (site GTAGGTACTGT),0
21,GTAGCTACATGGACCGGTTTTCCCGGTAATCCGTATTTGAC (site GTAGTTACTGT),1.7
22,GTAGGCACATGGACCGGTTTTCCCGGTAATCCGTATTTGTA (site GTAAGCACTTA),1.08
23,GTAGGCACATGGACCGGTTTTCCCGGTAATCCGTATTTGTA (site GTACGCACTTA),0.279
24,GTAGGCACATGGACCGGTTTTCCCGGTAATCCGTATTTGTA (site GTAGGCACTTA),1.29
25,GTAGGCACATGGACCGGTTTTCCCGGTAATCCGTATTTGTA (site GTATGCACTTA),0.019

row,Sequence,recombinant UMI read abundance (log10)
1,GTAGGCTCATGGACCGGTTTTCCCGGTAATCCGTATTTGCA (site GTAGGCTCTTG),2.94
2,GTAGGTACATGGACCGGTTTTCCCGGTAATCCGTATTTGAA (site GTAGGTACTAT),0
3,GTAGGTACATGGACCGGTTTTCCCGGTAATCCGTATTTGAA (site GTAGGTACTCT),0.518
4,GTAGGTACATGGACCGGTTTTCCCGGTAATCCGTATTTGAA (site GTAGGTACTGT),0.479
5,GTAGGTACATGGACCGGTTTTCCCGGTAATCCGTATTTGAA (site GTAGGTACTTT),1.75
6,GTAGGTACATGGACCGGTTTTCCCGGTAATCCGTATTTGCC (site GTAGGTACTGA),0.73
7,GTAGGTACATGGACCGGTTTTCCCGGTAATCCGTATTTGCC (site GTAGGTACTGC),0.00606
8,GTAGGTACATGGACCGGTTTTCCCGGTAATCCGTATTTGCC (site GTAGGTACTGG),0.956
9,GTAGGTACATGGACCGGTTTTCCCGGTAATCCGTATTTGCC (site GTAGGTACTGT),0.441
10,GTAGGTGCATGGACCGGTTTTCCCGGTAATCCGTATTTGAC (site GTAGGTACTGT),2.25
11,GTAGGTGCATGGACCGGTTTTCCCGGTAATCCGTATTTGAC (site GTAGGTCCTGT),0.618
12,GTAGGTGCATGGACCGGTTTTCCCGGTAATCCGTATTTGAC (site GTAGGTGCTGT),2.74
13,GTAGGTGCATGGACCGGTTTTCCCGGTAATCCGTATTTGAC (site GTAGGTTCTGT),1.1
14,GTAGTCGCATGGACCGGTTTTCCCGGTAATCCGTATTTGAG (site GTAGTCGCTCA),0.017
15,GTAGTCGCATGGACCGGTTTTCCCGGTAATCCGTATTTGAG (site GTAGTCGCTCC),0.924
16,GTAGTCGCATGGACCGGTTTTCCCGGTAATCCGTATTTGAG (site GTAGTCGCTCG),0.73
17,GTAGTCGCATGGACCGGTTTTCCCGGTAATCCGTATTTGAG (site GTAGTCGCTCT),1.5
18,GTAGTCGCATGGACCGGTTTTCCCGGTAATCCGTATTTGCA (site GTAGTCGCTAG),0.762
19,GTAGTCGCATGGACCGGTTTTCCCGGTAATCCGTATTTGCA (site GTAGTCGCTCG),1.85
20,GTAGTCGCATGGACCGGTTTTCCCGGTAATCCGTATTTGCA (site GTAGTCGCTGG),0.873
21,GTAGTCGCATGGACCGGTTTTCCCGGTAATCCGTATTTGCA (site GTAGTCGCTTG),2.68
22,GTAGTCGCATGGACCGGTTTTCCCGGTAATCCGTATTTGCC (site GTAGTCGCTAG),1.64
23,GTAGTCGCATGGACCGGTTTTCCCGGTAATCCGTATTTGCC (site GTAGTCGCTCG),0.819
24,GTAGTCGCATGGACCGGTTTTCCCGGTAATCCGTATTTGCC (site GTAGTCGCTGG),2.93
25,GTAGTCGCATGGACCGGTTTTCCCGGTAATCCGTATTTGCC (site GTAGTCGCTTG),2.39
